Measurements: US6355799B1, “Substituted benzene compounds, process for their preparation, and herbicidal and defoliant compositions containing them” (ISK Americas Incorporated, priority 1997, dated 2002)

Tests used:
Assay type in all cases: in vivo
[1] = tested on: redroot pigweed (Amaranthus retroflexus, AMARE); assay: Pre-emerge test, greenhouse herbicide activity screening; settings: for Pre-emerge Herbicidal Activity, phytotoxicity rating (0-100), AMARE: rated 14 days after application, 0 = no damage, 100 = complete death; for Pre-emerge Herbicidal Activity AMARE: phytotoxicity rating 0-100, 14 days after application
Procedure, shortened: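 Compounds in acetone were track-sprayed at 187 l/ha, 15–1000 g ai/ha, onto sandy loam pots. Pre-emerge seeds were sown one day before spraying, with surface watering afterwards. Post-emerge plants were at the 2–3 leaf stage and sprayed with 0.25% v/v non-ionic surfactant. Injury was rated 0–100 at 14 days.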

[2] = tested on: barnyardgrass (Echinochloa crus-galli, ECHCG); assay: as above; settings: for Pre-emerge Herbicidal Activity, phytotoxicity rating (0-100), ECHCG: rated 14 days after application, 0 = no damage, 100 = complete death; for Pre-emerge Herbicidal Activity ECHCG: phytotoxicity rating 0-100, 14 days after application
Procedure, shortened: (§1)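 Visual ratings on a 0-100 scale (0 no damage, 100 all plants dead) were taken at 14 days after treatment. Rates of 15-1000 g ai/ha in acetone, 187 l/ha, were sprayed onto soil one day after planting (pre-emerge) or onto 2-3 leaf plants with 0.25% v/v surfactant (post-emerge).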

[3] = tested on: green foxtail (Setaria viridis, SETVI); assay: as above; settings: for Pre-emerge Herbicidal Activity, phytotoxicity rating (0-100), SETVI: rated 14 days after application, 0 = no damage, 100 = complete death; for Pre-emerge Herbicidal Activity SETVI: phytotoxicity rating 0-100, 14 days after application
Procedure, shortened: as §1

[4] = tested on: ivyleaf morningglory (Ipomoea hederacea, IPOHE); assay: as above; settings: for Pre-emerge Herbicidal Activity, phytotoxicity rating (0-100), IPOHE: rated 14 days after application, 0 = no damage, 100 = complete death; for Pre-emerge Herbicidal Activity IPOHE: phytotoxicity rating 0-100, 14 days after application
Procedure, shortened: as §1

[5] = tested on: johnsongrass (Sorghum halepense, SORHA); assay: as above; settings: for Pre-emerge Herbicidal Activity, phytotoxicity rating (0-100), SORHA: rated 14 days after application, 0 = no damage, 100 = complete death; for Pre-emerge Herbicidal Activity SORHA: phytotoxicity rating 0-100, 14 days after application
Procedure, shortened: as §1

[6] = tested on: lambsquarters (Chenopodium album, CHEAL); assay: as above; settings: for Pre-emerge Herbicidal Activity, phytotoxicity rating (0-100), CHEAL: rated 14 days after application, 0 = no damage, 100 = complete death; for Pre-emerge Herbicidal Activity CHEAL: phytotoxicity rating 0-100, 14 days after application
Procedure, shortened: as §1

[7] = tested on: large crabgrass (Digitaria sanguinalis, DIGSA); assay: as above; settings: for Pre-emerge Herbicidal Activity, phytotoxicity rating (0-100), DIGSA: rated 14 days after application, 0 = no damage, 100 = complete death; for Pre-emerge Herbicidal Activity DIGSA: phytotoxicity rating 0-100, 14 days after application
Procedure, shortened: as §1

[8] = tested on: sicklepod (Cassia obtusifolia, CASOB); assay: as above; settings: for Pre-emerge Herbicidal Activity, phytotoxicity rating (0-100), CASOB: rated 14 days after application, 0 = no damage, 100 = complete death; for Pre-emerge Herbicidal Activity CASOB: phytotoxicity rating 0-100, 14 days after application
Procedure, shortened: as §1

[9] = tested on: velvetleaf (Abutilon theophrasti, ABUTH); assay: as above; settings: for Pre-emerge Herbicidal Activity, phytotoxicity rating (0-100), ABUTH: rated 14 days after application, 0 = no damage, 100 = complete death; for Pre-emerge Herbicidal Activity ABUTH: phytotoxicity rating 0-100, 14 days after application
Procedure, shortened: as §1

[10] = tested on: field corn (Zea mays L., var. Dekalb 535, CORN); assay: Pre-emerge test, crop safety; settings: for Pre-emerge phytotoxicity rating (0-100), crop damage, CORN: rated 14 days after application, 0 = no damage, 100 = complete death; for Pre-emerge Herbicidal Activity CORN: crop damage rating 0-100, 14 days after application
Procedure, shortened: (§2)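 Fourteen days after spraying, crop and weed injury was graded visually from 0, no effect, to 100, every plant dead. Test substances were dissolved in acetone and applied at 15–1000 g ai/ha with a flat-fan nozzle. Application was either pre-emergence, one day after sowing, or post-emergence at the 2–3 leaf stage.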

[11] = tested on: upland rice (Oryza sp., var. Tebonnet, RICE); assay: Pre-emerge test, crop safety; settings: for Pre-emerge phytotoxicity rating (0-100), crop damage, RICE: rated 14 days after application, 0 = no damage, 100 = complete death; for Pre-emerge Herbicidal Activity RICE: crop damage rating 0-100, 14 days after application
Procedure, shortened: as §2

[12] = tested on: barnyardgrass (Echinochloa crus-galli, ECHCG); assay: Post-emerge test, greenhouse herbicide activity screening; settings: post-emerge, 14 days after application, rating scale 0-100
Procedure, shortened: as §1

[13] = tested on: green foxtail (Setaria viridis, SETVI); assay: as above; settings: post-emerge, 14 days after application, rating scale 0-100
Procedure, shortened: as §1

[14] = tested on: ivyleaf morningglory (Ipomoea hederacea, IPOHE); assay: as above; settings: post-emerge, 14 days after application, rating scale 0-100
Procedure, shortened: as §1

[15] = tested on: johnsongrass (Sorghum halepense, SORHA); assay: as above; settings: post-emerge, 14 days after application, rating scale 0-100
Procedure, shortened: as §1

[16] = tested on: large crabgrass (Digitaria sanguinalis, DIGSA); assay: as above; settings: post-emerge, 14 days after application, rating scale 0-100
Procedure, shortened: as §1

[17] = tested on: redroot pigweed (Amaranthus retroflexus, AMARE); assay: as above; settings: post-emerge, 14 days after application
Procedure, shortened: as §1

[18] = tested on: sicklepod (Cassia obtusifolia, CASOB); assay: as above; settings: post-emerge, 14 days after application, rating scale 0-100
Procedure, shortened: as §1

[19] = tested on: velvetleaf (Abutilon theophrasti, ABUTH); assay: as above; settings: post-emerge, 14 days after application, rating scale 0-100
Procedure, shortened: as §1

[20] = tested on: field corn (Zea mays L., var. Dekalb 535, CORN); assay: Post-emerge test, crop safety; settings: post-emerge, 14 days after application, rating scale 0-100
Procedure, shortened: as §1

[21] = tested on: upland rice (Oryza sp., var. Tebonnet, RICE); assay: Post-emerge test, crop safety; settings: post-emerge, 14 days after application, rating scale 0-100
Procedure, shortened: as §1

[22] = 250 g ai/ha, rating scale 0-100

CCOC(=O)C(=O)Nc1c(OC)c(Cl)cc(F)c1-n1c(=O)cc(C(F)(F)F)n(C)c1=O [2-118]
Pre-emerge Herbicidal Activity, phytotoxicity rating (0-100), AMARE ([1]; 63 g ai/ha): 40
Pre-emerge Herbicidal Activity, phytotoxicity rating (0-100), AMARE ([1]; 250 g ai/ha): 100
Pre-emerge Herbicidal Activity, phytotoxicity rating (0-100), ECHCG ([2]; 63 g ai/ha): 0
Pre-emerge Herbicidal Activity, phytotoxicity rating (0-100), ECHCG ([2]; 250 g ai/ha): 0
Pre-emerge Herbicidal Activity, phytotoxicity rating (0-100), SETVI ([3]; 63 g ai/ha): 0
Pre-emerge Herbicidal Activity, phytotoxicity rating (0-100), SETVI ([3]; 250 g ai/ha): 50
Pre-emerge Herbicidal Activity, phytotoxicity rating (0-100), IPOHE ([4]; 63 g ai/ha): 10
Pre-emerge Herbicidal Activity, phytotoxicity rating (0-100), IPOHE ([4]; 250 g ai/ha): 80
Pre-emerge Herbicidal Activity, phytotoxicity rating (0-100), SORHA ([5]; 63 g ai/ha): 0
Pre-emerge Herbicidal Activity, phytotoxicity rating (0-100), SORHA ([5]; 250 g ai/ha): 0
Pre-emerge Herbicidal Activity, phytotoxicity rating (0-100), CHEAL ([6]; 63 g ai/ha): 90
Pre-emerge Herbicidal Activity, phytotoxicity rating (0-100), CHEAL ([6]; 250 g ai/ha): 100
Pre-emerge Herbicidal Activity, phytotoxicity rating (0-100), DIGSA ([7]; 63 g ai/ha): 0
Pre-emerge Herbicidal Activity, phytotoxicity rating (0-100), DIGSA ([7]; 250 g ai/ha): 20
Pre-emerge Herbicidal Activity, phytotoxicity rating (0-100), CASOB ([8]; 63 g ai/ha): 90
Pre-emerge Herbicidal Activity, phytotoxicity rating (0-100), CASOB ([8]; 250 g ai/ha): 40
Pre-emerge Herbicidal Activity, phytotoxicity rating (0-100), ABUTH ([9]; 63 g ai/ha): 90
Pre-emerge Herbicidal Activity, phytotoxicity rating (0-100), ABUTH ([9]; 250 g ai/ha): 100
Pre-emerge phytotoxicity rating (0-100), crop damage, CORN ([10]; 63 g ai/ha): 0
Pre-emerge phytotoxicity rating (0-100), crop damage, CORN ([10]; 250 g ai/ha): 10
Pre-emerge phytotoxicity rating (0-100), crop damage, RICE ([11]; 63 g ai/ha): 0
Pre-emerge phytotoxicity rating (0-100), crop damage, RICE ([11]; 250 g ai/ha): 30
phytotoxicity rating ECHCG ([12]; 63 g ai/ha): 0
phytotoxicity rating ECHCG ([12]; 250 g ai/ha): 0
phytotoxicity rating SETVI ([13]; 63 g ai/ha): 0
phytotoxicity rating SETVI ([13]; 250 g ai/ha): 0
phytotoxicity rating IPOHE ([14]; 63 g ai/ha): 50
phytotoxicity rating IPOHE ([14]; 250 g ai/ha): 90
phytotoxicity rating SORHA ([15]; 63 g ai/ha): 0
phytotoxicity rating SORHA ([15]; 250 g ai/ha): 0
phytotoxicity rating DIGSA ([16]; 63 g ai/ha): 0
phytotoxicity rating DIGSA ([16]; 250 g ai/ha): 0
phytotoxicity rating AMARE ([17]; 63 g ai/ha, rating scale 0-100): 30
phytotoxicity rating AMARE [17, 22]: 30
phytotoxicity rating CASOB ([18]; 63 g ai/ha): 0
phytotoxicity rating CASOB ([18]; 250 g ai/ha): 30
phytotoxicity rating ABUTH ([19]; 63 g ai/ha): 60
phytotoxicity rating ABUTH ([19]; 250 g ai/ha): 80
phytotoxicity rating CORN ([20]; 63 g ai/ha): 10
phytotoxicity rating CORN ([20]; 250 g ai/ha): 20
phytotoxicity rating RICE ([21]; 63 g ai/ha): 10
phytotoxicity rating RICE ([21]; 250 g ai/ha): 10

CCOC(=O)C(C)Oc1c(Cl)cc(F)c(-n2c(=O)cc(C(F)(F)F)n(C)c2=O)c1NC(=O)c1ccc2ccccc2c1 (stereo not drawn) [2-191]
Pre-emerge Herbicidal Activity AMARE ([1]; 63 g ai/ha): 100
Pre-emerge Herbicidal Activity AMARE ([1]; 250 g ai/ha): 100
Pre-emerge Herbicidal Activity ECHCG ([2]; 63 g ai/ha): 0
Pre-emerge Herbicidal Activity ECHCG ([2]; 250 g ai/ha): 10
Pre-emerge Herbicidal Activity SETVI ([3]; 63 g ai/ha): 40
Pre-emerge Herbicidal Activity SETVI ([3]; 250 g ai/ha): 80
Pre-emerge Herbicidal Activity IPOHE ([4]; 63 g ai/ha): 10
Pre-emerge Herbicidal Activity IPOHE ([4]; 250 g ai/ha): 40
Pre-emerge Herbicidal Activity SORHA ([5]; 63 g ai/ha): 0
Pre-emerge Herbicidal Activity SORHA ([5]; 250 g ai/ha): 50
Pre-emerge Herbicidal Activity CHEAL ([6]; 63 g ai/ha): 100
Pre-emerge Herbicidal Activity CHEAL ([6]; 250 g ai/ha): 100
Pre-emerge Herbicidal Activity DIGSA ([7]; 63 g ai/ha): 0
Pre-emerge Herbicidal Activity DIGSA ([7]; 250 g ai/ha): 70
Pre-emerge Herbicidal Activity CASOB ([8]; 63 g ai/ha): 10
Pre-emerge Herbicidal Activity CASOB ([8]; 250 g ai/ha): 30
Pre-emerge Herbicidal Activity ABUTH ([9]; 63 g ai/ha): 80
Pre-emerge Herbicidal Activity ABUTH ([9]; 250 g ai/ha): 100
Pre-emerge Herbicidal Activity CORN ([10]; 63 g ai/ha): 0
Pre-emerge Herbicidal Activity CORN ([10]; 250 g ai/ha): 0
Pre-emerge Herbicidal Activity RICE ([11]; 63 g ai/ha): 10
Pre-emerge Herbicidal Activity RICE ([11]; 250 g ai/ha): 20
phytotoxicity rating ECHCG ([12]; 63 g ai/ha): 0
phytotoxicity rating ECHCG ([12]; 250 g ai/ha): 0
phytotoxicity rating SETVI ([13]; 63 g ai/ha): 0
phytotoxicity rating SETVI ([13]; 250 g ai/ha): 10
phytotoxicity rating IPOHE ([14]; 63 g ai/ha): 80
phytotoxicity rating IPOHE ([14]; 250 g ai/ha): 100
phytotoxicity rating SORHA ([15]; 63 g ai/ha): 0
phytotoxicity rating SORHA ([15]; 250 g ai/ha): 0
phytotoxicity rating DIGSA ([16]; 63 g ai/ha): 0
phytotoxicity rating DIGSA ([16]; 250 g ai/ha): 0
phytotoxicity rating AMARE ([17]; 63 g ai/ha, rating scale 0-100 (0 no damage, 100 complete death)): 40
phytotoxicity rating AMARE [17, 22]: 90
phytotoxicity rating CASOB ([18]; 63 g ai/ha): 30
phytotoxicity rating CASOB ([18]; 250 g ai/ha): 80
phytotoxicity rating ABUTH ([19]; 63 g ai/ha): 70
phytotoxicity rating ABUTH ([19]; 250 g ai/ha): 90
phytotoxicity rating CORN (crop damage) ([20]; 63 g ai/ha): 10
phytotoxicity rating CORN (crop damage) ([20]; 250 g ai/ha): 20
phytotoxicity rating RICE (crop damage) ([21]; 63 g ai/ha): 10
phytotoxicity rating RICE (crop damage) ([21]; 250 g ai/ha): 20
